# Tested on: New Zealand rabbits with normal intraocular pressure
# Assay: Intraocular pressure reduction experiment in New Zealand rabbits with normal intraocular pressure
# Format: in vivo
# Conditions: for Intraocular pressure in the left eye: 20 mg/mL group, left eye (saline or solvent); for Intraocular pressure in the right eye: 20 mg/mL in right eye; for Reduction magnitude of intraocular pressure: 20 mg/mL, left minus right eye
# From the text: Experimental Example 2. Intraocular Pressure Reduction Experiment in New Zealand Rabbits with Normal Intraocular Pressure
# Rabbits with normal intraocular pressure were adopted to screen intraocular pressure reduction actions of the potential compounds by eye-drop administration.
# Male New Zealand rabbits, aged 97-127 days, weighted 2.65-3.5 kg, purchased from PizhouDongfang Breeding Co. Ltd.
# The male New Zealand rabbits were randomly divided into 8 rabbits/per group using a computer-generated randomization method Animals in each group were eye-dropped with different test samples in the right eye, and normal saline or solvent in the left eye, and the volume of the administration was both 50 μL/eye. The intraocular pressure of the animals was measured before administration and in 1, 2, 4, 6, 8 and 10 hours after the administration, respectively.
smiles,measurement,setting,value
Cc1cn(COC(=O)c2ccccc2)c(=O)c2cccc(S(=O)(=O)N3CC[C@H](N)C3)c12 [Compound 64],Intraocular pressure in the left eye,1 hour after administration,11.96 mmHg
same,Intraocular pressure in the left eye,2 hours after administration,9.79 mmHg
same,Intraocular pressure in the left eye,4 hours after administration,11.50 mmHg
same,Intraocular pressure in the left eye,6 hours after administration,11.54 mmHg
same,Intraocular pressure in the left eye,8 hours after administration,11.75 mmHg
same,Intraocular pressure in the left eye,10 hours after administration,11.88 mmHg
same,Intraocular pressure in the left eye,before administration,11.29 mmHg
same,Intraocular pressure in the right eye,1 hour after administration,11.54 mmHg
same,Intraocular pressure in the right eye,2 hours after administration,7.42 mmHg
same,Intraocular pressure in the right eye,4 hours after administration,7.13 mmHg
same,Intraocular pressure in the right eye,6 hours after administration,7.38 mmHg
same,Intraocular pressure in the right eye,8 hours after administration,7.63 mmHg
same,Intraocular pressure in the right eye,10 hours after administration,9.71 mmHg
same,Intraocular pressure in the right eye,before administration,12.04 mmHg
same,Reduction magnitude of intraocular pressure,1 hour after administration,0.42 mmHg
same,Reduction magnitude of intraocular pressure,2 hours after administration,2.37 mmHg
same,Reduction magnitude of intraocular pressure,4 hours after administration,4.37 mmHg
same,Reduction magnitude of intraocular pressure,6 hours after administration,4.16 mmHg
same,Reduction magnitude of intraocular pressure,8 hours after administration,4.12 mmHg
same,Reduction magnitude of intraocular pressure,10 hours after administration,2.17 mmHg
same,Reduction magnitude of intraocular pressure,before administration,−0.75 mmHg
